Experimental data as given in patent US20250019387A1 (Frontier Medicines Corporation, priority 0001, published 2025).

The compounds below were run against KRAS G12C and cRAF (Ras-binding domain) interaction (Homo sapiens (Human), UniProt P01116, C118S/C51S/C80L/G12C) (assay: Inhibition of KRAS G12C and cRAF binding (AlphaScreen)). Conditions: not given.
Procedure, shortened: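 Compounds (DMSO) preincubated 19-20 h at room temperature, then RBD with streptavidin donor and glutathione acceptor beads added in 25 mM Hepes pH 7.4, 150 mM NaCl, 5 mM MgCl2, 0.01% Triton X-100, 2% DMSO for 60-90 min. Emission 570 nm (excitation 680 nm); IC50 by 4-parameter fit. Counter-screen used biotin-AviTag-GST instead of RBD.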

Sequence of KRAS G12C and cRAF (Ras-binding domain) interaction (P01116 other isoform, or with tags, fused parts or gaps G12C/C51S/C80L/C118S): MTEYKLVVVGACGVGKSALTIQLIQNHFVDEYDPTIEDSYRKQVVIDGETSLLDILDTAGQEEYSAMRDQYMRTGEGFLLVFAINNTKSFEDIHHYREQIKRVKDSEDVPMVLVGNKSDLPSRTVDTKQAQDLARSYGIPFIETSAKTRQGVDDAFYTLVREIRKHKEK

IC50 | SMILES
10 to 100 nM | C=CC(=O)N1CC[C@@H](N(CC(F)F)c2nc(OC[C@@]34CCCN3C[C@H](F)C4)nc3c(F)c(-c4cccc5cccc(Cl)c45)ncc23)C1 [Example 194, 1-((R)-3-((7-(8-chloronaphthalen-1-yl)-8-fluoro-2-(((2R,7aS)-2-fluorotetrahydro-1H-pyrrolizin-7a(5H)-yl)methoxy)pyrido[4,3-d]pyrimidin-4-yl)(2,2-difluoroethyl)amino)pyrrolidin-1-yl)prop-2-en-1-one]

Same assay, conditions: GMPPNP-loaded KRAS G12C, 19-20 hours incubation with compound; read-out: IC50 (Inhibition of KRAS G12C and cRAF Binding)

IC50 | SMILES
< 10 nM | CN(c1nc(OC[C@@]23CCCN2C[C@H](F)C3)nc2c1CCN(c1cccc3cccc(Cl)c13)C2)[C@@H]1CCN(C(=O)/C=C/c2nc(C3COC3)no2)C1 [Example 154, (E)-1-((R)-3-((7-(8-chloronaphthalen-1-yl)-2-(((2R,7aS)-2-fluorohexahydro-1H-pyrrolizin-7a-yl)methoxy)-5,6,7,8-tetrahydropyrido[3,4-d]pyrimidin-4-yl)(methyl)amino)pyrrolidin-1-yl)-3-(3-(oxetan-3-yl)-1,2,4-oxadiazol-5-yl)prop-2-en-1-one]
< 10 nM | CN(c1nc(OCC23CCCN2CCC3)nc2c(F)c(-c3cccc4cccc(Cl)c34)ncc12)[C@@H]1CCN(C(=O)/C=C/c2nc(C3COC3)no2)C1 [Example 155, (R,E)-1-(3-((7-(8-chloronaphthalen-1-yl)-8-fluoro-2-((tetrahydro-1H-pyrrolizin-7a(5H)-yl)methoxy)pyrido[4,3-d]pyrimidin-4-yl)(methyl)amino)pyrrolidin-1-yl)-3-(3-(oxetan-3-yl)-1,2,4-oxadiazol-5-yl)prop-2-en-1-one]
10 to 100 nM | CN(c1nc(OCC23CCCN2CCC3)nc2c1CCN(c1cccc3cccc(Cl)c13)C2)[C@@H]1CCN(C(=O)/C=C/c2nc(C3COC3)no2)C1 [Example 156, (R,E)-1-(3-((7-(8-chloronaphthalen-1-yl)-2-((hexahydro-1H-pyrrolizin-7a-yl)methoxy)-5,6,7,8-tetrahydropyrido[3,4-d]pyrimidin-4-yl)(methyl)amino)pyrrolidin-1-yl)-3-(3-(oxetan-3-yl)-1,2,4-oxadiazol-5-yl)prop-2-en-1-one]
< 10 nM | CN(c1nc(OC[C@@]23CCCN2C[C@H](F)C3)nc2c(F)c(-c3cccc4cccc(Cl)c34)ncc12)[C@@H]1CCN(C(=O)/C=C/c2nc(C(F)F)no2)C1 [Example 157, (E)-1-((R)-3-((7-(8-chloronaphthalen-1-yl)-8-fluoro-2-(((2R,7aS)-2-fluorotetrahydro-1H-pyrrolizin-7a(5H)-yl)methoxy)pyrido[4,3-d]pyrimidin-4-yl)(methyl)amino)pyrrolidin-1-yl)-3-(3-(difluoromethyl)-1,2,4-oxadiazol-5-yl)prop-2-en-1-one]
< 10 nM | C=CC(=O)N1CC[C@@H](N(C)c2nc(OC[C@@]34CCCN3C[C@H](F)C4)nc3c(F)c(-c4cc(O)cc5ccccc45)ncc23)C1 [Example 158, 1-((R)-3-((8-fluoro-2-(((2R,7aS)-2-fluorohexahydro-1H-pyrrolizin-7a-yl)methoxy)-7-(3-hydroxynaphthalen-1-yl)pyrido[4,3-d]pyrimidin-4-yl)(methyl)amino)pyrrolidin-1-yl)prop-2-en-1-one]
< 10 nM | CN(c1nc(OC[C@@]23CCCN2C[C@H](F)C3)nc2c(F)c(-c3cccc4cccc(Cl)c34)ncc12)[C@@H]1CCN(C(=O)/C=C/c2nc(C3COC3)no2)C1 [Example 159, (E)-1-((R)-3-((7-(8-chloronaphthalen-1-yl)-8-fluoro-2-(((2R,7aS)-2-fluorohexahydro-1H-pyrrolizin-7a-yl)methoxy)pyrido[4,3-d]pyrimidin-4-yl)(methyl)amino)pyrrolidin-1-yl)-3-(3-(oxetan-3-yl)-1,2,4-oxadiazol-5-yl)prop-2-en-1-one]
< 10 nM | Cc1noc(/C=C/C(=O)N2CC[C@@H](N(C)c3nc(OC[C@@]45CCCN4C[C@H](F)C5)nc4c3CCN(c3cccc5cccc(Cl)c35)C4)C2)n1 [Example 178, (E)-1-((R)-3-((7-(8-chloronaphthalen-1-yl)-2-(((2R,7aS)-2-fluorohexahydro-1H-pyrrolizin-7a-yl)methoxy)-5,6,7,8-tetrahydropyrido[3,4-d]pyrimidin-4-yl)(methyl)amino)pyrrolidin-1-yl)-3-(3-methyl-1,2,4-oxadiazol-5-yl)prop-2-en-1-one]
10 to 100 nM | C=CC(=O)N1C[C@@H](F)[C@H](N(C)c2nc(OCC34CCCN3CCC4)nc3c(F)c(-c4cccc5ccc(F)c(Cl)c45)ncc23)C1 [Example 184, 1-((3R,4R)-3-((7-(8-chloro-7-fluoronaphthalen-1-yl)-8-fluoro-2-((hexahydro-1H-pyrrolizin-7a-yl)methoxy)pyrido[4,3-d]pyrimidin-4-yl)(methyl)amino)-4-fluoropyrrolidin-1-yl)prop-2-en-1-one]
100 to 500 nM | C=CC(=O)N1CC[C@@H](N(C)c2nc(OC[C@@]34CCCN3C[C@H](F)C4)nc3c(F)c(-c4cccc5ccc(F)c(CC)c45)ncc23)C1 [Example 185, 1-((R)-3-((7-(8-ethyl-7-fluoronaphthalen-1-yl)-8-fluoro-2-(((2R,7aS)-2-fluorotetrahydro-1H-pyrrolizin-7a(5H)-yl)methoxy)pyrido[4,3-d]pyrimidin-4-yl)(methyl)amino)pyrrolidin-1-yl)prop-2-en-1-one]
< 10 nM | CN1CCC1C#CC(=O)N1CC[C@@H](N(C)c2nc(OC[C@@]34CCCN3C[C@H](F)C4)nc3c(F)c(-c4cccc5cccc(Cl)c45)ncc23)C1 (stereo partly drawn) [Example 186, 1-((R)-3-((7-(8-chloronaphthalen-1-yl)-8-fluoro-2-(((2R,7aS)-2-fluorohexahydro-1H-pyrrolizin-7a-yl)methoxy)pyrido[4,3-d]pyrimidin-4-yl)(methyl)amino)pyrrolidin-1-yl)-3-(1-methylazetidin-2-yl)prop-2-yn-1-one]
100 to 500 nM | CN1CCOCC1C#CC(=O)N1CC[C@@H](N(C)c2nc(OC[C@@]34CCCN3C[C@H](F)C4)nc3c(F)c(-c4cccc5cccc(Cl)c45)ncc23)C1 (stereo partly drawn) [Example 188, 1-((R)-3-((7-(8-chloronaphthalen-1-yl)-8-fluoro-2-(((2R,7aS)-2-fluorohexahydro-1H-pyrrolizin-7a-yl)methoxy)pyrido[4,3-d]pyrimidin-4-yl)(methyl)amino)pyrrolidin-1-yl)-3-(4-methylmorpholin-3-yl)prop-2-yn-1-one]
100 to 500 nM | C=CC(=O)N1C[C@H](C)[C@@H](N(C)c2nc(OC[C@@]34CCCN3C[C@H](F)C4)nc3c(F)c(-c4cccc5cccc(Cl)c45)ncc23)C1 [Example 189, 1-((3R,4S)-3-((7-(8-chloronaphthalen-1-yl)-8-fluoro-2-(((2R,7aS)-2-fluorotetrahydro-1H-pyrrolizin-7a(5H)-yl)methoxy)pyrido[4,3-d]pyrimidin-4-yl)(methyl)amino)-4-methylpyrrolidin-1-yl)prop-2-en-1-one]
100 to 500 nM | C=CC(=O)N1CC[C@@H](Nc2nc(OC[C@@]34CCCN3C[C@H](F)C4)nc3c(F)c(-c4cccc5cccc(Cl)c45)ncc23)[C@H]1C [Example 190, 1-((2R,3R)-3-((7-(8-chloronaphthalen-1-yl)-8-fluoro-2-(((2R,7aS)-2-fluorotetrahydro-1H-pyrrolizin-7a(5H)-yl)methoxy)pyrido[4,3-d]pyrimidin-4-yl)amino)-2-methylpyrrolidin-1-yl)prop-2-en-1-one]
10 to 100 nM | C=CC(=O)N1CC[C@@H](N(C)c2nc(OC[C@@]34CCCN3C[C@H](F)C4)nc3c(F)c(-c4cccc5ccc(F)c(F)c45)ncc23)C1 [Example 192, 1-((R)-3-((7-(7,8-difluoronaphthalen-1-yl)-8-fluoro-2-(((2R,7aS)-2-fluorotetrahydro-1H-pyrrolizin-7a(5H)-yl)methoxy)pyrido[4,3-d]pyrimidin-4-yl)(methyl)amino)pyrrolidin-1-yl)prop-2-en-1-one]
10 to 100 nM | CN(c1nc(OC[C@@]23CCCN2C[C@H](F)C3)nc2c(F)c(-c3cccc4cccc(Cl)c34)ncc12)[C@@H]1CCN(C(=O)C#C[C@]2(C)CCCN2C)C1 [Example 193, 1-((R)-3-((7-(8-chloronaphthalen-1-yl)-8-fluoro-2-(((2R,7aS)-2-fluorohexahydro-1H-pyrrolizin-7a-yl)methoxy)pyrido[4,3-d]pyrimidin-4-yl)(methyl)amino)pyrrolidin-1-yl)-3-((S)-1,2-dimethylpyrrolidin-2-yl)prop-2-yn-1-one]
10 to 100 nM | C=CC(=O)N1CC[C@@H](N(C)c2nc(OC[C@@]34CCCN3C[C@H](F)C4)nc3c(F)c(-c4cccc5ccc(F)c(C)c45)ncc23)C1 [Example 195, 1-((R)-3-((8-fluoro-7-(7-fluoro-8-methylnaphthalen-1-yl)-2-(((2R,7aS)-2-fluorotetrahydro-1H-pyrrolizin-7a(5H)-yl)methoxy)pyrido[4,3-d]pyrimidin-4-yl)(methyl)amino)pyrrolidin-1-yl)prop-2-en-1-one]
10 to 100 nM | CCc1c(F)ccc2cccc(-c3ncc4c(N(C)[C@@H]5CCN(C(=O)/C=C/[C@H]6CCN6C)C5)nc(OC[C@@]56CCCN5C[C@H](F)C6)nc4c3F)c12 [Example 196, (E)-1-((R)-3-((7-(8-ethyl-7-fluoronaphthalen-1-yl)-8-fluoro-2-(((2R,7aS)-2-fluorotetrahydro-1H-pyrrolizin-7a(5H)-yl)methoxy)pyrido[4,3-d]pyrimidin-4-yl)(methyl)amino)pyrrolidin-1-yl)-3-((R)-1-methylazetidin-2-yl)prop-2-en-1-one]

SMILES | IC50
C#Cc1c(F)ccc2cccc(-c3ncc4c(N(C)[C@@H]5CCN(C(=O)C=C)C5)nc(OC[C@@]56CCCN5C[C@H](F)C6)nc4c3F)c12 [Example 187, 1-((R)-3-((7-(8-ethynyl-7-fluoronaphthalen-1-yl)-8-fluoro-2-(((2R,7aS)-2-fluorohexahydro-1H-pyrrolizin-7a-yl)methoxy)pyrido[4,3-d]pyrimidin-4-yl)(methyl)amino)pyrrolidin-1-yl)prop-2-en-1-one] | < 10 nM
